Tests used:
mouse leukemia L1210 = assay: Antitumor activity against L1210 cell-planted mice (T/C value); assay type: in vivo; settings: intraperitoneal, CDF1 mice
Method: A portion of 1×10^5 mouse leukemia L1210 cells subcultured in DBA/2 mice were transplanted in the abdominal cavities of CDF1 mice (male, 6 weeks old, 6-10 animals/group). Each of the test compounds was intraperitoneally administered to the mice on the 1st, […] and 9th days after the day of transplantation. Each of the preparations was used after being dissolved in distilled water.
The antitumor activity of the platinum complexes against the L1210 cell-planted mice was evaluated based on the T/C value determined by the following equation. [formula]

[1] = system: cisplatin-resistant L1210 cells; assay: In vitro cytotoxic effect on cisplatin-resistant mouse leukemia L1210 cells (XTT colorimetric method); assay type: cell-based; settings: read-out: 50% cell growth inhibition concentration (IC50), 37° C., 5 days
Method: A test of the in vitro cytotoxic effect of compound 15 and cisplatin on cisplatin-resistant mouse leukemia L1210 cells was conducted in the following manner.
1×10^5 cisplatin-resistant L1210 cells were seeded in a 96-well plate at 100 μl per well. About 100 μl of the drugs at graded dilutions was added to each well. Culturing was then performed at 37° C. for 5 days, and the cells were counted by the XTT colorimetric method.

testicular carcinoma = settings: cited from earlier work; for effectiveness against testicular carcinoma and the like (in words): in vivo
[2] = prior-art complexes; cited from earlier work

Compound	T/C (mouse leukemia L1210; 0.25 mg/kg) [%]	T/C (mouse leukemia L1210; 0.5 mg/kg) [%]	T/C (mouse leukemia L1210; 1 mg/kg) [%]	T/C (mouse leukemia L1210; 2 mg/kg) [%]	T/C (mouse leukemia L1210; 4 mg/kg) [%]	IC50 [1] [nM]	effectiveness against testicular carcinoma and the like (in words) (testicular carcinoma)	potency when readministered to recurrent patients (in words) (testicular carcinoma)	stability in aqueous solutions (in words) [2]
N.N.[Cl][Pt][Cl] [Cisplatin, cis-diamminedichloroplatinum(II) complex]	101	101	106	123	160	10.7	very effective	lowered potency	–
N.N.O=C([O-])C1(C(=O)[O-])CCC1.[Pt+2] [carboplatin]	–	–	–	–	–	–	very effective	lowered potency	–
O=C(O)c1ccc(C(=O)O)c(C(=O)O)c1 [trimellitic acid]	–	–	–	–	–	–	–	–	poor stability

Reference: patent US5616613A, “Platinum(II) complex and malignant tumor treatment agent” (priority 1994, dated 1997)
